The assay deals with BDF1 mice, B16 melanoma ip, median survival T/C. The assay is described as follows: NCI In Vivo Anticancer Drug Screen. Data for tumor model B16 Melanoma (intraperitoneal) in B6D2F1 (BDF1) mice. Particulars: endpoint: median survival time, higher = longer survival. The procedure, abridged:
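Compounds were tested in mice carrying transplantable tumors. Survival or tumor size was recorded, and each value is the treated-group measurement (T) divided by that of the vehicle-treated control group (C).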

[1] abbreviates: dose: 50.0 mg/kg/injection, schedule: Q01DX009 (ip), vehicle: saline with Tween-80.
Where [2] appears, read: dose: 100.0 mg/kg/injection, schedule: Q01DX009 (ip), vehicle: saline with Tween-80.
[3] abbreviates: dose: 200.0 mg/kg/injection, schedule: Q01DX009 (ip), vehicle: saline with Tween-80.
Where [4] appears, read: dose: 100.0 mg/kg/injection, schedule: Q04DX003 (ip), vehicle: saline.
The mark [5] stands for this setting: dose: 200.0 mg/kg/injection, schedule: Q04DX003 (ip), vehicle: saline.
The mark [6] stands for this setting: dose: 400.0 mg/kg/injection, schedule: Q04DX003 (ip), vehicle: saline.
Where [7] appears, read: dose: 100.0 mg/kg/injection, schedule: Q01DX009 (ip), vehicle: Klucel (hydroxypropylcellulose) (HPC).
[8] abbreviates: dose: 200.0 mg/kg/injection, schedule: Q01DX009 (ip), vehicle: Klucel (hydroxypropylcellulose) (HPC).
Setting [9] is: dose: 400.0 mg/kg/injection, schedule: Q01DX009 (ip), vehicle: Klucel (hydroxypropylcellulose) (HPC).
[10] abbreviates: dose: 5.0 mg/kg/injection, schedule: Q01DX009 (ip), vehicle: Klucel (hydroxypropylcellulose) (HPC).
The mark [11] stands for this setting: dose: 20.0 mg/kg/injection, schedule: Q01DX009 (ip), vehicle: Klucel (hydroxypropylcellulose) (HPC).

“And” between values parts separate entries of the source, which are not always exact repeats. Equal entries are not always repeated. Toxic doses and inconclusive results are not listed.

For the compound `Nc1ccnc(=O)[nH]1`, the T/C reads like this: (dose: 32.0 mg/kg/injection, schedule: Q01DX009 (ip), vehicle: Klucel (hydroxypropylcellulose) (HPC)) 98 % of control and 102 % of control; (dose: 32.0 mg/kg/injection, schedule: Q01DX009 (ip), vehicle: saline with Tween-80) 113 % of control; (dose: 32.0 mg/kg/injection, schedule: Q01DX009 (ip), vehicle: saline) 104 % of control; (dose: 64.0 mg/kg/injection, schedule: Q01DX009 (ip), vehicle: Klucel (hydroxypropylcellulose) (HPC)) 101 % of control and 106 % of control; (dose: 64.0 mg/kg/injection, schedule: Q01DX009 (ip), vehicle: saline with Tween-80) 97 % of control; (dose: 64.0 mg/kg/injection, schedule: Q01DX009 (ip), vehicle: saline) 110 % of control. For the same compound, the T/C reads like this: (dose: 128.0 mg/kg/injection, schedule: Q01DX009 (ip), vehicle: Klucel (hydroxypropylcellulose) (HPC)) 103 % of control and 113 % of control; (dose: 128.0 mg/kg/injection, schedule: Q01DX009 (ip), vehicle: saline with Tween-80) 103 % of control; (dose: 128.0 mg/kg/injection, schedule: Q01DX009 (ip), vehicle: saline) 119 % of control; (dose: 256.0 mg/kg/injection, schedule: Q01DX009 (ip), vehicle: Klucel (hydroxypropylcellulose) (HPC)) 94 % of control and 103 % of control; (dose: 256.0 mg/kg/injection, schedule: Q01DX009 (ip), vehicle: saline) 105 % of control; (dose: 512.0 mg/kg/injection, schedule: Q01DX009 (ip), vehicle: Klucel (hydroxypropylcellulose) (HPC)) 100 % of control and 102 % of control. Further, the T/C (dose: 512.0 mg/kg/injection, schedule: Q01DX009 (ip), vehicle: saline with Tween-80) was 111 % of control and the T/C (dose: 512.0 mg/kg/injection, schedule: Q01DX009 (ip), vehicle: saline) was 110 % of control.

For `O=C(O)CCNCc1ccccc1`, the T/C was 111 % of control (dose: 12.5 mg/kg/injection, schedule: Q01DX009 (ip), vehicle: saline); 102 % of control (dose: 50.0 mg/kg/injection, schedule: Q01DX009 (ip), vehicle: saline); 106 % of control (dose: 100.0 mg/kg/injection, schedule: Q01DX009 (ip), vehicle: saline); 111 % of control (dose: 200.0 mg/kg/injection, schedule: Q01DX009 (ip), vehicle: saline).

As for `CNC(=S)N/N=C/c1ccc([N+](=O)[O-])s1`, the T/C is, setting by setting: under setting [1], 90 % of control; under setting [2], 92 % of control; under setting [3], 92 % of control.

For `COc1ccc(CCN2CCCC2C(=O)O)cc1OC` (stereo not given), the T/C under setting [4] is 100 % of control, the T/C under setting [5] is 105 % of control and the T/C under setting [6] was 96 % of control.

For `C=CC(C)NC(=S)NNC(=S)NC` (stereo not given), the T/C reads like this: (dose: 25.0 mg/kg/injection, schedule: Q01DX009 (ip), vehicle: saline + alcohol) 97 % of control; (dose: 50.0 mg/kg/injection, schedule: Q01DX009 (ip), vehicle: saline + alcohol) 102 % of control; (dose: 100.0 mg/kg/injection, schedule: Q01DX009 (ip), vehicle: saline + alcohol) 104 % of control; (dose: 200.0 mg/kg/injection, schedule: Q01DX009 (ip), vehicle: saline + alcohol) 98 % of control; (dose: 400.0 mg/kg/injection, schedule: Q01DX009 (ip), vehicle: saline + alcohol) 97 % of control.

As for `CC[C@H](C)[C@H](NC(=O)OC(C)(C)C)C(=O)ON1C(=O)CCC1=O`, the T/C runs as follows: under setting [1], 92 % of control; under setting [2], 97 % of control; under setting [3], 90 % of control.

Turning to `Cc1ccc2c(c1)CN(Cc1ccccc1)CO2`, the T/C reads like this: under setting [7], 93 % of control; under setting [8], 96 % of control; under setting [9], 96 % of control.

As for `CCC(C)(C)c1ccc(O)c(C(C)(C)CC)c1`, the T/C is, setting by setting: under setting [7], 93 % of control; under setting [8], 106 % of control; under setting [9], 106 % of control.

As for `C=CCN1CCC(C(=O)CC)(c2ccccc2)CC1`, the T/C was 111 % of control (dose: 10.0 mg/kg/injection, schedule: Q04DX003 (ip), vehicle: Klucel (hydroxypropylcellulose) (HPC)); 114 % of control (dose: 20.0 mg/kg/injection, schedule: Q04DX003 (ip), vehicle: Klucel (hydroxypropylcellulose) (HPC)); 114 % of control (dose: 40.0 mg/kg/injection, schedule: Q04DX003 (ip), vehicle: Klucel (hydroxypropylcellulose) (HPC)).

Turning to `[N-]=[N+]=C1C(=O)NN=C1c1ccccc1`, under setting [7], the T/C was 105 % of control.

`O=CNC(Cc1ccccc1)Cc1ccccc1`: the T/C reads like this: under setting [10], 96 % of control; (dose: 10.0 mg/kg/injection, schedule: Q01DX009 (ip), vehicle: Klucel (hydroxypropylcellulose) (HPC)) 100 % of control; under setting [11], 100 % of control.

Take `CC(C)(C)OC(=O)n1cnc(CC(NC(=O)OCc2ccccc2)C(=O)O)c1` (stereo not given): the T/C under setting [1] was 98 % of control, the T/C under setting [2] is 89 % of control and the T/C under setting [3] is 92 % of control.

On to `CC1(c2ccc(N(CCCl)CCCl)cc2)NC(=O)NC1=O` (stereo not given), for which the T/C is, setting by setting: (dose: 2.5 mg/kg/injection, schedule: Q01DX009 (ip), vehicle: Klucel (hydroxypropylcellulose) (HPC)) 104 % of control; under setting [10], 94 % of control and 111 % of control; (dose: 18.75 mg/kg/injection, schedule: Q01DX009 (ip), vehicle: Klucel (hydroxypropylcellulose) (HPC)) 119 % of control; under setting [11], 120 % of control and 123 % of control; (dose: 37.5 mg/kg/injection, schedule: Q01DX009 (ip), vehicle: Klucel (hydroxypropylcellulose) (HPC)) 102 % of control; (dose: 40.0 mg/kg/injection, schedule: Q01DX009 (ip), vehicle: Klucel (hydroxypropylcellulose) (HPC)) 157 % of control and 161 % of control. Moreover, the T/C (dose: 75.0 mg/kg/injection, schedule: Q01DX009 (ip), vehicle: Klucel (hydroxypropylcellulose) (HPC)) is 90 % of control.

In the case of `CCOC(=O)C(=CN1CCCCCC1)C(=O)OCC`, the T/C reads like this: under setting [2], 102 % of control; (dose: 100.0 mg/kg/injection, schedule: Q04DX003 (ip), vehicle: saline with Tween-80) 97 % of control; under setting [3], 101 % of control; (dose: 200.0 mg/kg/injection, schedule: Q04DX003 (ip), vehicle: saline with Tween-80) 95 % of control; (dose: 400.0 mg/kg/injection, schedule: Q04DX003 (ip), vehicle: saline with Tween-80) 92 % of control.

As to `NC(CCSCc1ccccc1)C(=O)O` (stereo not given), the T/C was 105 % of control under setting [2]; 96 % of control under setting [3]; 87 % of control (dose: 400.0 mg/kg/injection, schedule: Q01DX009 (ip), vehicle: saline with Tween-80).

Consider `COC(=O)[C@@H]1[C@H](O)[C@H](C)[C@H](O)[C@H](C)/C=C\C=C(C)C(=O)Nc2c(C)c(OC(C)=O)c3c(c2O)C(=O)C(C)=C2OCOC(=C23)C(C)=C[C@@](C)(O)[C@H](O)[C@@H](C)[C@H]1OC(C)=O`, for which the T/C by setting is: under setting [7], 104 % of control; (dose: 100.0 mg/kg/injection, schedule: Q01DX009 (ip), vehicle: carboxymethylcellulose (CMC)) 103 % of control; under setting [8], 94 % of control; (dose: 200.0 mg/kg/injection, schedule: Q01DX009 (ip), vehicle: carboxymethylcellulose (CMC)) 123 % of control; (dose: 400.0 mg/kg/injection, schedule: Q01DX009 (ip), vehicle: carboxymethylcellulose (CMC)) 97 % of control.

Take `O=S(=O)(O)CNc1ccccc1`: the T/C by setting is: under setting [4], 104 % of control; under setting [5], 97 % of control; under setting [6], 106 % of control.

Turning to `O=C(O)O.O=C(O)O.O=C(O)O.[Co]`, the T/C reads like this: (dose: 25.0 mg/kg/injection, schedule: Q04DX003 (ip), vehicle: saline with Tween-80) 88 % of control; (dose: 50.0 mg/kg/injection, schedule: Q04DX003 (ip), vehicle: saline with Tween-80) 91 % of control.

For the compound `COc1ccc(Br)cc1/C=N\NS(=O)(=O)c1ccc(C)cc1`, the T/C is, setting by setting: under setting [7], 94 % of control; under setting [2], 90 % of control; under setting [8], 110 % of control; under setting [3], 95 % of control; under setting [9], 100 % of control.

On to `Cc1cc(=O)n2c3c(c(N)ccc13)OC2`, for which the T/C is 100 % of control under setting [7] and 92 % of control under setting [8].

The values are drawn from PubChem BioAssay AID192 (DTP/NCI, 2004).
